# Values quoted from earlier work, collected in patent US20140234406A1, “NOVEL NANOPARTICULATE SUSPENSION FOR INCORPORATING FAT-SOLUBLE VITAMINS IN THE TREATMENT OF HAIR THINNING and HAIR LOSS” (HairRx, priority 2013, published 2014).
# Conditions: biological half-life; reported by Yap et al. 2001 and Schwedhelm et al. 2003
structure (smiles),measurement,value
Cc1c(C)c2c(c(C)c1O)CC[C@@](C)(CCC[C@H](C)CCC[C@H](C)CCCC(C)C)O2 [alpha-tocopherol],half-life,73 to 81 h
